Reference: patent US20080319065A1, “Systemic and Intrathecal Effects of a Novel Series of Phospholipase A2 Inhibitors on Hyperalgesia and Spinal Pge2 Release” (The Regents of the University of California, priority 2005, published 2008)

Tested on: carrageenan-induced thermal hyperalgesia
Assay: Carrageenan-induced thermal hyperalgesia, paw withdrawal latency
Assay type: in vivo, rat
From the text: Male Holtzman Sprague-Dawley rats (300-350 g; Harlan Industries) were individually housed and maintained on a 12-hr light/dark cycle with free access to food and water. For spinal drug injections, lumbar catheters were implanted in rats under isoflurane anesthesia according to a modification of the procedure described by Yaksh (Yaksh and Rudy, supra, 1976). A polyethylene catheter (PE-5; Spectranetics, 0.014 in OD) was inserted into the intrathecal space and advanced to the rostral edge of the lumbar enlargement through an incision in the atlanto-occipital membrane. Five days after implantation rats were entered into the study. In separate experiments to assess spinal prostaglandins release, rats were prepared with lumbar loop dialysis catheters with three lumens, as previously described, see (Yaksh, et al., supra, 2001). Thermal hyperalgesia. Two approaches were employed to initiate a hyperalgesic state. An inflammation-evoked thermal hyperalgesia was induced by subcutaneous injection of 2 mg of carrageenan (Sigma, St. Louis, Mo., 100 μl of […] solution (w/v) in physiological saline) into the plantar surface of the left hind paw. To assess the thermally-evoked paw-withdrawal response, a commercially available device modeled after that described by Hargreaves and colleagues (Hargreaves, Pain, 32:77-88, 1988) was used (see, Dirig and Yaksh, Neurosci. Lett., 220:93-96, 1996; Dirig, et al., J. Neurosci. Methods, 76:183-191, 1997). In brief, the device consisted of a glass surface (maintained at 25° C.) on which the rats are placed individually in Plexiglas cubicles (9×22×25 cm). The thermal nociceptive stimulus originated from a focused projection bulb positioned below the glass surface. The stimulus was delivered separately to either hind paw of each test subject with the aid of an angled mirror mounted on the stimulus source. A timer was actuated with the light source, and latency was defined as the time required for the paw to show a brisk withdrawal as detected by photodiode motion sensors that stop the timer and terminate the stimulus. Paw withdrawal latencies (PWL) were assessed prior to any treatment (control) and at intervals after treatment. Left (injured) and right (uninjured) paw withdrawal latencies were assessed and plotted versus time. In addition, difference latency scores (uninjured-injured) were calculated and the average withdrawal latency over the post-injection observation intervals are calculated for comparison between treatment groups. Drugs were delivered systemically (IP) or spinally (IT). Intraperitoneal drugs were delivered uniformly in doses prepared in volumes of 0.5 ml/kg. Drugs injected IT were administered in a total volume of […] followed by a 10 μl flush using vehicle.

CCCCCCCCCCCCCCC(=O)C(=O)NCCCC(=O)OCC [AX048, Ethyl 4-[(2-oxohexadecanoyl)amino]butanoate]
antihyperalgesic effect by pretreatment interval (3 mg/kg IP, 15 min before carrageenan): minimal effects | antihyperalgesic effect by pretreatment interval (3 mg/kg IP, 30 min before carrageenan): peak effects | reduction of carrageenan thermal hyperalgesia (3 mg/kg IP, 30 min pretreatment): reduced the thermal hyperalgesia | antihyperalgesic effect by pretreatment interval (3 mg/kg IP, 180 min before carrageenan): effects persisted | antihyperalgesic effect by pretreatment interval (3 mg/kg IP, 360 min before carrageenan): no different from the control | dose dependency of anti-hyperalgesic effect (IP, 0.2-3 mg/kg): dose-dependent | ED50 (Rattus norvegicus, IP, carrageenan thermal hyperalgesia, read-out: IP ED50, dose that reduced the hyperalgesia by 50%): 1.2 mg/kg | attenuation of carrageenan thermal hyperalgesia (intrathecal 30 μg/10 μL, 15 min pretreatment): attenuated the thermal hyperalgesia
